Laboratory results from ChEMBL document CHEMBL3044695, “Synthesis and insect antifeedant activity of C-2 and C-5 substituted perhydrofurofurans and 3a-hydroxy-perhydrofurofurans (Part I)” (Tetrahedron, 1999).

Legend:
Pieris brassicae [1] = experiment: Antifeedant activity against fifth-instar larvae of Pieris brassicae on cabbage leaf discs at 5 mM measured upto 3 hr time period by two-choice bioassay; format: functional
Pieris brassicae [2] = experiment: Post-ingestive toxicity in Pieris brassicae on cabbage leaf discs at 5 mM; format: organism-based; settings: in vivo, po, 5000 µM
Pieris brassicae [3] = experiment: Antifeedant activity against fifth-instar larvae of Pieris brassicae on cabbage leaf discs at 5 mM measured 0 to 1.5 hr time period by no-choice bioassay; format: functional
Pieris brassicae [4] = experiment: Antifeedant activity against fifth-instar larvae of Pieris brassicae on cabbage leaf discs at 5 mM measured 1.5 to 3 hr time period by no-choice bioassay; format: functional

| SMILES | AFI (Pieris brassicae [1]) [%] | Activity (Pieris brassicae [2]) | AFI (Pieris brassicae [3]) [%] | AFI (Pieris brassicae [4]) [%] |
| --- | --- | --- | --- | --- |
| O[C@]12C=CO[C@H]1O[C@H](C1CCCCC1)C2 | 54 | – | – | – |
| CCCCCCCCCC[C@@H]1C[C@H]2CC(=O)O[C@H]2O1 (racemic) | 10 | – | – | – |
| OC1C[C@H]2CC(C3CCCCC3)O[C@H]2O1 (some centres undefined) | 10 | Non-toxic | 18.6 | 15.9 |
| O=C1C[C@@H]2C[C@@H](c3ccccc3)O[C@@H]2O1 (racemic) | 18 | – | – | – |
| COC1C[C@]2(O)C[C@@H](C3CCCCC3)O[C@@H]2O1 (some centres undefined) | 18 | – | – | – |
| O=C1C[C@H]2CC(C3CCCCC3)O[C@H]2O1 (some centres undefined) | 10 | Non-toxic | 22.4 | 13.9 |
| C1=C[C@@H]2CC(c3ccccc3)O[C@@H]2O1 (some centres undefined) | 11 | Non-toxic | -1.7 | -2.6 |
| O=C1C[C@H]2C[C@@H](C3CCCCC3)O[C@@H]2O1 (relative stereo) | 9 | – | – | – |
| CC(=O)OC1C[C@]2(O)C[C@@H](C3CCCCC3)O[C@@H]2O1 (some centres undefined) | 9 | – | – | – |
| OC1C[C@]2(O)C[C@@H](C3CCCCC3)O[C@@H]2O1 (some centres undefined) | 16 | – | – | – |
| O[C@]12CCO[C@H]1O[C@H](C1CCCCC1)C2 | 24 | – | – | – |
| C1CCC(C2C[C@@H]3CCO[C@@H]3O2)CC1 (some centres undefined) | 26 | Non-toxic | 6.7 | 5.4 |
| CCCCCCCCCCC1C[C@H]2CC(=O)O[C@H]2O1 (some centres undefined) | 41 | – | – | – |
| CCCCCCC1C[C@H]2C=CO[C@H]2O1 (some centres undefined) | 11 | Non-toxic | 20.3 | 10.6 |
| C1=C[C@@H]2CC(C3CCCCC3)O[C@@H]2O1 (some centres undefined) | -2.5 | Non-toxic | -9.3 | -12.3 |
| CCOC1C[C@H]2CC(C3CCCCC3)O[C@H]2O1 (some centres undefined) | 20 | Non-toxic | 18.3 | 9.5 |
| O=C1C[C@@H]2C[C@H](C3CCCCC3)O[C@@H]2O1 (relative stereo) | 24 | – | – | – |
| O=C1C[C@]2(O)C[C@@H](C3CCCCC3)O[C@@H]2O1 | 9 | – | – | – |
| CC(=O)OC1C[C@H]2CC(C3CCCCC3)O[C@H]2O1 (some centres undefined) | 16 | Non-toxic | 16.7 | 3 |
| CCCCCCC1C[C@H]2CC(=O)O[C@H]2O1 (some centres undefined) | -11 | – | – | – |
